Data published in patent publication US7691624B2, “Cancer cell detecting devices” (Academia Sinica, priority 2003, dated 2010).

How the values were obtained:
[1] = Fluorescence analysis in aqueous solution; assay type: physicochemical; settings: λex≈430 nm, no DNA
Experimental: (§1) Compound 2 was mixed with eleven DNAs and subjected to fluorescence analysis at λex≈430 nm, using a Hitachi F4010 spectrofluorimeter with a 2 nm bandwidth in a 1-cm cell. Fluorescence analysis was also carried out for compound 4 in the presence of Hum24. […] Further, the fluorescence peaks for a complex of compound 2 and a DNA duplex and a complex of compound 2 and a DNA quadruplex were at ˜550 nm and ˜575 nm, respectively.

[2] = Absorption analysis of the free compound; assay type: physicochemical; settings: compound alone, before adding DNA
Experimental: Each oligonucleotide described above was mixed with a solution of 10 mM Tris-HCl (pH 7.5) and 150 mM NaCl and was denatured at 90° C. for 2 min. The mixture was then cooled slowly to room temperature and stored at 4° C. for more than 2 days before use. A test compound was then added to this solution to form a compound/DNA complex. The resultant complex was subjected to absorption analysis using a Hitachi U3200 UV-visible spectrophotometer.
The absorption spectra were taken for compound 2 and its complex with each oligonucleotide. […] In addition, the molar absorption coefficient decreased by ˜15% in the presence of a DNA duplex and ˜35% in the presence of a DNA quadruplex. 10 These spectra changes indicate that compound 2 binds to duplexes and quadruplexes.

LQ4 = test: Pre-stained gel electrophoresis selectivity and sensitivity assay; assay type: binding
Experimental: (§2) Pre-stained gels were used for selectivity assays. A 0.1 μM compound 2 solution was initially incubated with 10 μM of different DNA solutions for 10 minutes. Gel electrophoresis was then carried out in an electric field of 100 V/cm at 4° C. for 6 hours. All of the pre-stained gels were photographed under 254 nm UV light using a Bio-Rad imaging detector.
(§3) Gels pre-stained with compound 2 were used before running electrophoresis for AT, LD, GC, G10, LQ1, LQ2, LQ4, Tet12, Oxy12, Hum12, Apt, Oxy28, and Hum24. […] This third band is ascribed to be a linear tetramer of Tet12.
(§4) To study the sensitivity of DNA detection using electrophoresis described above, a solution containing 0.1 μM of compound 2 was incubated with solutions containing 2.5 to 0.005 μM of Hum24. The mixtures were then subjected to electrophoresis.

Tet12 = test: as above; assay type: binding
Experimental: as §2, §3, §4

Oxy28 = test: as above; assay type: binding
Experimental: as §2, §3, §4

DNA quadruplex = test: Fluorescence analysis of compound/DNA complex; assay type: binding
Experimental: as §1

DNA duplex = test: Fluorescence analysis of compound/DNA complex; assay type: binding; settings: complex with a DNA duplex, λex≈430 nm
Experimental: as §1

primary fibroblast = test: Fluorescence of stained cells in eppendorf under LED, recorded by camera; assay type: cell-based; settings: Normal cells (F) primary fibroblast
Experimental: (§5) Human lung CL1-0 cancer cells or MRC-5 normal cells were incubated with 0.5 μM of Compound 2 and acridine orange (AO). After incubation in standard culture medium for 1 hour, the non-fixed cells were removed by washing the culture three times with phosphate buffered saline (PBS). The fixed cells were collected in an eppendorf by trypsinization. The eppendorf was centrifuged and then illuminated by an light emitting diode (LED) emitting excitation light with a center wavelength at 470 nm. A conventional digital camera was used to record the fluorescence. Table 1 summarizes the numbers of cells required to distinguish cancer cells from normal cells based on fluorescence emission of Compound 2 and AO recorded by a camera under different experimental conditions. Specifically, Compound 2 and AO were incubated with four different cells in eppendorf, i.e., MRC-5 normal cells, primary fibroblast, CL1-0 cancer cells, and HeLa cancer cells.

HeLa cancer cells = test: as above; assay type: cell-based; settings: Cancer cells (H) HeLa
Experimental: as §5

DNA = test: Fluorescence analysis in the presence of a DNA; assay type: binding; settings: λex≈430 nm; compound 2 with eleven DNAs, compound 4 with Hum24
Experimental: as §1

[3] = system: AT, LD, GC, G10, LQ1, LQ2, LQ4, Tet12, Oxy12, Hum12, Apt, Oxy28, and Hum24; test: Post-stained polyacrylamide gel electrophoresis; assay type: binding; settings: gels post-stained with 10 μM compound, 254 nm UV light
Experimental: Compound 2 and its complexes with DNA quadruplexes were further studied by polyacrylamide gel eletrophoresis (PAGE). More specifically, compound 2/DNA quadruplexes described above were analyzed by PAGE in 20% native gels in 10 mM Tris-HCI and 150 mM NaCl (pH 7.5). Gel electrophoresis was carried out in an electric field of 100 V/cm at 4° C. for 15 hours. DNA concentrations were determined by absorbencies at 260 nm and were adjusted to about 10 μM per unit structure. After photographing with UV shadowing, gels were post-stained in a solution containing 10 μM of compound 2, 10 mM Tris-HCl, and 150 mM NaCl (pH 7.5) at room temperature for 10 seconds. The gels were then rinsed by distilled water and photographed under 254 nm UV light using a digital camera.
Gels were post-stained with compound 2 after electrophoresis of AT, LD, GC, G10, LQ1, LQ2, LQ4, Tet12, Oxy12, Hum12, Apt, Oxy28, and Hum24 was complete. […] In particular, most DNAs migrated in the gel in a single band, but Tet12 and LQ4 migrated in two bands.

[4] = 0.1 μM compound solution, electrophoresis
[5] = 0.1 μM compound, 10 μM DNA, 254 nm UV light

## C[n+]1ccc(C=Cc2ccc3[nH]c4ccc(C=Cc5cc[n+](C)cc5)cc4c3c2)cc1.[I-].[I-] [Compound 2, 3,6-bis-(2-(1-methylpyridinium-4-yl)-vinyl)-9H-carbazole diiodide]
other
  melting point: > 300 °C
[1]
  fluorescence in an aqueous solution: weak
[2]
  absorption peak: ~435 nm
LQ4; [4]
  concentration of LQ4 quadruplex detected: 0.1 µM
LQ4; [5]
  fluorescence band in pre-stained gel: exhibited fluorescence bands
Tet12; [4]
  concentration of Tet12 quadruplex in which a small amount of linear tetramer is detected: 0.25 µM
Tet12; [5]
  fluorescence band in pre-stained gel: only exhibited a third fluorescence band
Oxy28; [4]
  concentration of Oxy28 quadruplex detected: 0.1 µM
Oxy28; [5]
  fluorescence band in pre-stained gel: exhibited fluorescence bands
DNA quadruplex; DNA quadruplex versus DNA duplex, fluorescence analysis
  binding preference: higher binding preference to a DNA quadruplex than to a DNA duplex
DNA quadruplex; complex with a DNA quadruplex, λex≈430 nm
  fluorescence peak of complex: ~575 nm
DNA duplex
  fluorescence peak of complex: ~550 nm
Primary fibroblast; 0.05 μM/1 hr
  Numbers of cells required to distinguish cancer cells and normal cells: 20,000 (F)
Primary fibroblast; 0.1 μM/1 hr
  Numbers of cells required to distinguish cancer cells and normal cells: 12,500 (F)
HeLa cancer cells; 0.05 μM/1 hr
  Numbers of cells required to distinguish cancer cells and normal cells: 2,000 (H)
HeLa cancer cells; 0.1 μM/1 hr
  Numbers of cells required to distinguish cancer cells and normal cells: 2,000 (H)
DNA
  increase of fluorescence intensity in the presence of a DNA: two orders of magnitude
[3]
  fluorescence bands in post-stained gels: most DNAs exhibited fluorescence bands
